Results published in patent US11952365B2, “Anti-viral compounds” (Aligos Therapeutics, Inc., priority 2020, dated 2024).
Read-outs that look alike come from different tables or passages of the source.

Legend:
[1] = system: SARS-CoV-2-GHB-03021/2020; experiment: SARS-CoV-2 Infection Model in Huh7 Cells; format: cell-based; conditions: Severe acute respiratory syndrome coronavirus 2, Huh-7, 96 h, SARS-CoV-2, day 4 p.i., MTS, class symbols
[2] = Cytotoxicity plates without OC43 virus (cell-titer-glo); format: cell-based, human; conditions: human; HeLa cells without OC43 virus, class symbols
Description: The human beta-coronavirus OC43 was purchased from ATCC (Manassas, VA) and propagated using HCT-8 human colorectal epithelial cells (ATCC). HeLa human cervical epithelial cells (ATCC) were used as susceptible host cell lines and were cultured using EMEM media, supplemented with 10% fetal bovine serum (FBS), 1% (v/v) penicillin/streptomycin (P/S), 1% (v/v) HEPES and 1% (v/v) Cellgro Glutagro™ supplement (all Corning, Manassas, VA) at 37° C. For the OC43 antiviral assay, 1.5×10^4 HeLa cells per well were plated in 100 μL complete media in white 96-well plates with clear bottoms at 37° C. for up to 24 h to facilitate attachment and allow cells to recover from seeding stresses. Next day, the cell culture medium was removed. Serially diluted compounds in 100 μL assay media (EMEM, 2% FBS, 1% P/S, 1% Cellgro Glutagro™ supplement, 1% HEPES) were added to the cells and incubated for 4H at 37° C. in a humidified 5% CO2 incubator. 100 μL of OC43 virus stock was diluted to a concentration known to produce optimal cytopathic effect, inducing 80-90% reduction in cell viability. 96-well plates were incubated for 6 (HeLa) days at 33° C.; each plate contains uninfected control wells as well as virus-infected wells that were not treated with compound. Cytotoxicity plates without the addition of OC43 virus were carried out in parallel. At the end of the incubation period, 100 μL cell culture supernatant was replaced with 100 μL cell-titer-glo reagent (Promega, Madison, WI) and incubated for at least 10 min at rt prior to measuring luminescence. Luminescence was measured on a Perkin Elmer (Waltham, MA) Envision plate reader. Antiviral % inhibition was calculated as follows: [(Compound treated cells infected sample)−(no compound infected control)]/[(Uninfected control)−(no compound infected control)]*100; Using GraphPad (San Diego, CA) prism software version 8.3.1, the antiviral dose-response plot was generated as a sigmoidal fit, log(inhibitor) vs response-variable slope (four parameters) model and the EC50 was calculated which is the predicted compound concentration corresponding to a 50% inhibition of the viral cytopathic effect.

[3] = system: human beta-coronavirus OC43; experiment: microbe, parasite or virus in culture; format: cell-based; conditions: Betacoronavirus 1, OC43, HeLa, 144 h
in vitro [4] = conditions: human
HRV3C = HRV3C (Human rhinovirus 14, UniProt P03303); experiment: HRV3C protease assay (duplex, SAMDI-MS); format: biochemical, HRV; conditions: 30 mins preincubation
Description: Protease assays were performed in 384-well low volume polypropylene microtiter plates at ambient temperature. For the duplex assay, 3CLpro and HRV3C was added using a Multidrop Combi (Thermo Scientific; Waltham, MA) and preincubated for 30 mins with small molecules. The reactions were initiated by the addition of the two peptide substrates. The reactions were incubated for 30 mins and quenched by the addition of 0.5% formic acid (final) with subsequent neutralization using 1% sodium bicarbonate (final). Internal standard peptides were added in 20 mM Hepes pH 8.0 for quantitation of the protease products. For SAMDI-MS analysis, 2 μL of each reaction mixture was transferred using a 384-channel automated liquid handler to SAMDI biochip arrays functionalized with a neutravidin-presenting self-assembled monolayer. The SAMDI arrays were incubated for 1 h in a humidified chamber to allow the specific immobilization of the biotinylated peptide substrates, cleaved products and internal standards. The samples were purified by washing the SAMDI arrays with deionized ultrafiltered water and dried with compressed air. A matrix comprising alpha-cyano cinnamic acid in 80% acetonitrile:20% aqueous ammonium citrate was applied in an automated format by dispensing 50 nL to each spot in the array. SAMDI-MS was performed using reflector-positive mode on an AB Sciex TOF-TOF 5800 System (AB Sciex, Framingham, MA) with 400 shots/spot analyzed in a random raster sampling. For data analysis, area under the curves (peaks) (AUCs) for the product and internal standard were calculated using the TOF/TOF Series Explorer (AB Sciex), and the amount of product formed was calculated using the equation (AUC product/AUC internal standard). The amount of product generated was calculated using the ratio of product area under the curve (AUC) divided by the AUC of the internal standard. Negative controls were pre-quenched with 0.5% formic acid final. Assay robustness was determined by Z-Factor. The IC50s were determined by fitting the curves using a four-parameter equation in Graphpad Prism 8.

3CLpro = 3CLpro (Severe acute respiratory syndrome coronavirus 2, UniProt P0DTD1); experiment: SARS-CoV-2 3CLpro protease assay (duplex, SAMDI-MS); format: biochemical; set-up: For the duplex assay, 3CLpro and HRV3C was added; conditions: 3CLpro, 30 mins preincubation, class symbols; read-out: SARS-Cov-2 IC50
human cathepsin L = target: T1, human cathepsin L (Homo sapiens, UniProt P07711); experiment: cathepsin L assay; format: biochemical; conditions: 10 pM human cathepsin L, Z-FR-AMC 2 μM, class symbols
T1 construct: purchased R&D Systems
Description: For the cathepsin L assay, 10 pM of human cathepsin L (R&D Systems; Minneapolis, MN) was preincubated for 30 mins with test compounds. Reactions were initiated by the addition of a peptide substrate Z-FR-AMC (final concentration 2 μM, Anaspec; Fremont, CA). Fluorescence was measured at 2-minute intervals for 30 mins using a 355/460 excitation/emission filter module on an Envision plate reader (Perkin Elmer; Waltham, MA). The IC50 values were calculated for each assay by fitting the curves using a four-parameter equation in GraphPad Prism.

in vitro [5] = conditions: African green monkey, VeroE6 + CP (CC50), Vero E6-eGFP cells with CP-100356, absence of virus, MTS
[6] = system: SARS-CoV-2-GHB-03021/2020; experiment: microbe, parasite or virus in culture; format: cell-based; conditions: Severe acute respiratory syndrome coronavirus 2, Vero C1008, 96 h; read-out: VeroE6 + CP (EC50)
[7] = OC43 in HeLa cells, 6 days at 33° C., class symbols, read-out: EC50
[8] = HRV3C, class symbols, read-out: HRV IC50
[9] = OC43 in HeLa cells, 6 days at 33° C., bound, read-out: EC50

SMILES: O=C(NCc1ccccc1)C(=O)C(C[C@@H]1CCCNC1=O)NC(=O)[C@@H]1[C@H]2CCC[C@H]2CN1C(=O)c1cc2ccccc2[nH]1 (stereo partly drawn) [Compound 17, (1S,3aR,6aS)—N-(4-(benzylamino)-3,4-dioxo-1-((S)-2-oxopiperidin-3-yl)butan-2-yl)-2-(1H-indole-2-carbonyl)octahydrocyclopenta[c]pyrrole-1-carboxamide]
- EC50 [1]: 1 to 10 µM
- CC50 at 6 days [2]: > 10 µM
- EC50 [3, 7]: 0.1 to 1 µM
- CC50 (in vitro [4]): > 10 µM
- IC50 (HRV3C; [8]): 2 to 20 µM
- IC50 (3CLpro): 0.02 to 0.2 µM
- IC50 (human cathepsin L): 1 to 10 µM

SMILES: COc1cccc2[nH]c(C(=O)N3C[C@@H]4CCC[C@@H]4[C@H]3C(=O)N[C@@H](C[C@@H]3CCNC3=O)C(=O)CO)nc12 [Compound 37]
- EC50 [1]: 1 to 10 µM
- CC50 at 6 days [2]: > 10 µM
- EC50 [3, 7]: 1 to 10 µM
- CC50 (in vitro [4]): > 100 µM
- IC50 (HRV3C; [8]): 20 to 100 µM
- IC50 (3CLpro): 0.02 to 0.2 µM
- IC50 (human cathepsin L): ≥ 10 µM

SMILES: COc1cccc2[nH]c(C(=O)N3C[C@@H]4CCC[C@@H]4[C@H]3C(=O)NC(C[C@@H]3CCNC3=O)C(=O)C(N)=O)cc12 (stereo partly drawn) [Compound 56, 3-{[(1S,3aR,6aS)-2-(4-methoxy-1H-indole-2-carbonyl)-hexahydro-1H-cyclopenta[c]pyrrol-1-yl]formamido}-2-oxo-4-[(3S)-2-oxopyrrolidin-3-yl]butanamide]
- EC50 [1]: 10 to 100 µM
- CC50 at 6 days [2]: > 10 µM
- EC50 [3, 7]: 10 to 100 µM
- CC50 (in vitro [4]): > 100 µM
- IC50 (HRV3C; [8]): 0.2 to 2 µM
- IC50 (3CLpro): 0.02 to 0.2 µM
- IC50 (human cathepsin L): ≥ 10 µM

SMILES: COc1cccc2[nH]c(C(=O)N3C[C@@H]4CCC[C@@H]4[C@H]3C(=O)N[C@@H](C[C@@H]3CCNC3=O)C(=O)c3nc4ccccc4o3)cc12 [Compound 75, (1S,3aR,6aS)—N-[(2S)-1-(1,3-benzoxazol-2-yl)-1-oxo-3-[(3S)-2-oxopyrrolidin-3-yl]propan-2-yl]-2-(4-methoxy-1H-indole-2-carbonyl)-hexahydro-1H-cyclopenta[c]pyrrole-1-carboxamide]
- CC50 (in vitro [5]; numeric bounds): > 100 µM
- CC50 at 6 days [2]: > 10 µM
- EC50 [3, 7]: 0.1 to 1 µM
- IC50 (HRV3C; HRV IC50, HRV3C, bound): > 10 µM
- IC50 (3CLpro): 0.02 to 0.2 µM
- IC50 (human cathepsin L): ≥ 10 µM
- EC50 [6]: 1 to 10 µM

SMILES: O=C1NCC[C@H]1C[C@H](NC(=O)[C@@H]1[C@H]2CCC[C@H]2CN1C(=O)c1cc2c(=O)[nH]ccc2[nH]1)C(=O)CO [Compound 76, (1S,3aR,6aS)—N-[(2S)-4-hydroxy-3-oxo-1-[(3S)-2-oxopyrrolidin-3-yl]butan-2-yl]-2-{4-oxo-1H,5H-pyrrolo[3,2-c]pyridine-2-carbonyl}-hexahydro-1H-cyclopenta[c]pyrrole-1-carboxamide]
- CC50 (in vitro [5]; numeric bounds): > 100 µM
- CC50 at 6 days [2]: > 10 µM
- EC50 [3, 9]: > 10 µM
- IC50 (HRV3C; HRV IC50, HRV3C, class symbols): 0.2 to 2 µM
- IC50 (3CLpro): 0.02 to 0.2 µM
- IC50 (human cathepsin L): ≥ 10 µM
- EC50 [6]: 10 to 100 µM

SMILES: Cn1ccc2[nH]c(C(=O)N3C[C@@H]4CCC[C@@H]4[C@H]3C(=O)N[C@@H](C[C@@H]3CCNC3=O)C(=O)CO)cc2c1=O [Compound 77, (1S,3aR,6aS)—N—((S)-4-hydroxy-3-oxo-1-((S)-2-oxopyrrolidin-3-yl)butan-2-yl)-2-(5-methyl-4-oxo-4,5-dihydro-1H-pyrrolo[3,2-c]pyridine-2-carbonyl)octahydrocyclopenta[c]pyrrole-1-carboxamide]
- CC50 (in vitro [5]; class symbols): > 10 µM
- CC50 at 6 days [2]: > 10 µM
- EC50 [3]: > 10 µM
- IC50 (HRV3C; HRV IC50, HRV3C, class symbols): 2 to 20 µM
- IC50 (3CLpro): 0.02 to 0.2 µM
- IC50 (human cathepsin L): ≥ 10 µM
- EC50 [6]: 10 to 100 µM

SMILES: O=C1NCC[C@H]1C[C@H](NC(=O)[C@@H]1[C@H]2CCC[C@H]2CN1C(=O)c1cc2ncccc2[nH]1)C(=O)CO [Compound 78, (1S,3aR,6aS)—N—((S)-4-hydroxy-3-oxo-1-((S)-2-oxopyrrolidin-3-yl)butan-2-yl)-2-(1H-pyrrolo[3,2-b]pyridine-2-carbonyl)octahydrocyclopenta[c]pyrrole-1-carboxamide]
- CC50 (in vitro [5]; numeric bounds): > 100 µM
- CC50 at 6 days [2]: > 10 µM
- EC50 [3, 7]: 1 to 10 µM
- IC50 (HRV3C; [8]): 2 to 20 µM
- IC50 (3CLpro): 0.02 to 0.2 µM
- IC50 (human cathepsin L): ≥ 10 µM
- EC50 [6]: 10 to 100 µM

SMILES: COc1cccc2[nH]c(C(=O)N3C[C@@H]4CCC[C@@H]4[C@H]3C(=O)N[C@@H](C[C@@H]3CCNC3=O)C(=O)c3nc4ccccc4[nH]3)cc12 [Compound 92, (1S,3aR,6aS)—N-[(2S)-1-(1H-1,3-benzodiazol-2-yl)-1-oxo-3-[(3S)-2-oxopyrrolidin-3-yl]propan-2-yl]-2-(4-methoxy-1H-indole-2-carbonyl)-hexahydro-1H-cyclopenta[c]pyrrole-1-carboxamide]
- CC50 (in vitro [5]; numeric bounds): > 100 µM
- CC50 at 6 days [2]: > 10 µM
- EC50 [3, 9]: > 10 µM
- IC50 (HRV3C; HRV IC50, HRV3C, bound): > 10 µM
- IC50 (3CLpro): 0.2 to 2 µM
- IC50 (human cathepsin L): ≥ 10 µM
- EC50 [6]: 10 to 100 µM

SMILES: COc1cccc2[nH]c(C(=O)N3Cc4ccccc4C[C@H]3C(=O)N[C@@H](C[C@@H]3CCNC3=O)C(=O)COCc3ccccc3)cc12 [Compound 99]
- CC50 (in vitro [5]; class symbols): > 10 µM
- CC50 at 6 days [2]: > 10 µM
- EC50 [3, 9]: > 10 µM
- IC50 (HRV3C; HRV3C, bound, read-out: HRV IC50): > 10 µM
- IC50 (3CLpro): 2 to 20 µM
- IC50 (human cathepsin L): ≥ 10 µM
- EC50 [6]: 10 to 100 µM

SMILES: COc1cccc2[nH]c(C(=O)N3C[C@@H]4CCC[C@@H]4[C@H]3C(=O)N[C@@H](C[C@@H]3CCNC3=O)C(=O)C(=O)NCC(F)(F)F)cc12 [Compound 114]
- CC50 (in vitro [5]; numeric bounds): > 50 µM
- CC50 at 6 days [2]: > 10 µM
- EC50 [3, 7]: 1 to 10 µM
- IC50 (HRV3C; [8]): 2 to 20 µM
- IC50 (3CLpro): 0.2 to 2 µM
- IC50 (human cathepsin L): ≥ 10 µM
- EC50 [6]: 10 to 100 µM
